The results in this text go back to ChEMBL document CHEMBL6083258, “Advances in synthesis of novel annulated azecines and their unique pharmacological properties” (Eur J Med Chem, 2024).

pIC50, pKi: −log10 of the molar value.

The target of assay [1] is T1, Acetylcholinesterase (Homo sapiens, UniProt P22303). Put plainly: Binding affinity to AChE (unknown origin) assessed as inhibition constant.
In assay [2] the target is T1, Acetylcholinesterase. Put plainly: Inhibition of human AChE using acetylthiocholine iodide as substrate after 15 mins by Ellman's method. (In general: Ellman's reagent forms a yellow product with free thiols.)
Assay [3] concerns the target T2, Amine oxidase [flavin-containing] B (Homo sapiens, UniProt P27338).
T2 sequence (P27338 whole entry): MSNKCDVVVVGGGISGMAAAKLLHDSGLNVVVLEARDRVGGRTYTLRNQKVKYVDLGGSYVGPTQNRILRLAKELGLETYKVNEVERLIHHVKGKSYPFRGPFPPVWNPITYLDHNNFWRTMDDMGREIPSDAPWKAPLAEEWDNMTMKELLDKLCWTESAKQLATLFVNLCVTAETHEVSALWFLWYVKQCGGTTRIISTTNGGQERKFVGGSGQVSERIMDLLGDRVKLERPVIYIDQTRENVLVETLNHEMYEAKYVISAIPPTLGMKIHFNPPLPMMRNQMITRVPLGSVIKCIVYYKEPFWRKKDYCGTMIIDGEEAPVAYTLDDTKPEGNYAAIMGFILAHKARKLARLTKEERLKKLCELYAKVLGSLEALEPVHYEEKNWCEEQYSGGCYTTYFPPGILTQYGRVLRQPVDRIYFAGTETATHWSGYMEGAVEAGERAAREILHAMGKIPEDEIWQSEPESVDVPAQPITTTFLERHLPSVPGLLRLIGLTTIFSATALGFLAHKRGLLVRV
Put plainly: Inhibition of MAO-B (unknown origin).

A further assay concerns HepG2. Description: Antiproliferative activity against human HepG2 cells assessed as reduction in cell viability incubated for 48 hrs by MTT assay. It counts as functional, cell-based. Conditions: HepG2, 48 h. (Tetrazolium dyes change colour on reduction, which living cells bring about.)
In another assay the test system is MCF7. Description: Antiproliferative activity against human MCF7 cells assessed as reduction in cell viability incubated for 48 hrs by MTT assay. Type of assay: functional, cell-based. The settings on record: MCF7, 48 h.
Assay [4] concerns the target ATP-dependent translocase ABCB1 (Homo sapiens, UniProt P08183). Put plainly: Inhibition of p-glycoprotein (unknown origin).

Usually pKi stands for the Ki on a negative log10 scale, so that one unit is a factor of ten. In general, pIC50 refers to the IC50 on a negative log10 scale, so that one unit is a factor of ten.

T1 sequence (P22303 whole entry): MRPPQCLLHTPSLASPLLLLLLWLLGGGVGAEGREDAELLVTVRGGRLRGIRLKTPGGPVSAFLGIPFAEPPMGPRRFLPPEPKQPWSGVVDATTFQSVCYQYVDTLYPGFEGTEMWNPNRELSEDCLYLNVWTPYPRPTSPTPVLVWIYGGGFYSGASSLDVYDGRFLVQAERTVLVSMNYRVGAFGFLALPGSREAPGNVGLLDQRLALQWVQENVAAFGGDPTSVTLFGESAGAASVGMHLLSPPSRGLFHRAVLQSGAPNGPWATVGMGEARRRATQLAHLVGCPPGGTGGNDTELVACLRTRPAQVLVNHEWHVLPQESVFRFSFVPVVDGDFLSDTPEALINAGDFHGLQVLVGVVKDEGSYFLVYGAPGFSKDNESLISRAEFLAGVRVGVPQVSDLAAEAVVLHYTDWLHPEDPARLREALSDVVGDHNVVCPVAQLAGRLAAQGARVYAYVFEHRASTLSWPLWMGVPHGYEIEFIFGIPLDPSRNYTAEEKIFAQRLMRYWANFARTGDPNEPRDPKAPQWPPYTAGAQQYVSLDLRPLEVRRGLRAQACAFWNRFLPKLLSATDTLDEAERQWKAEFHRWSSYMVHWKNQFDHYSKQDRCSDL
Sequence of ATP-dependent translocase ABCB1 (P08183 whole entry): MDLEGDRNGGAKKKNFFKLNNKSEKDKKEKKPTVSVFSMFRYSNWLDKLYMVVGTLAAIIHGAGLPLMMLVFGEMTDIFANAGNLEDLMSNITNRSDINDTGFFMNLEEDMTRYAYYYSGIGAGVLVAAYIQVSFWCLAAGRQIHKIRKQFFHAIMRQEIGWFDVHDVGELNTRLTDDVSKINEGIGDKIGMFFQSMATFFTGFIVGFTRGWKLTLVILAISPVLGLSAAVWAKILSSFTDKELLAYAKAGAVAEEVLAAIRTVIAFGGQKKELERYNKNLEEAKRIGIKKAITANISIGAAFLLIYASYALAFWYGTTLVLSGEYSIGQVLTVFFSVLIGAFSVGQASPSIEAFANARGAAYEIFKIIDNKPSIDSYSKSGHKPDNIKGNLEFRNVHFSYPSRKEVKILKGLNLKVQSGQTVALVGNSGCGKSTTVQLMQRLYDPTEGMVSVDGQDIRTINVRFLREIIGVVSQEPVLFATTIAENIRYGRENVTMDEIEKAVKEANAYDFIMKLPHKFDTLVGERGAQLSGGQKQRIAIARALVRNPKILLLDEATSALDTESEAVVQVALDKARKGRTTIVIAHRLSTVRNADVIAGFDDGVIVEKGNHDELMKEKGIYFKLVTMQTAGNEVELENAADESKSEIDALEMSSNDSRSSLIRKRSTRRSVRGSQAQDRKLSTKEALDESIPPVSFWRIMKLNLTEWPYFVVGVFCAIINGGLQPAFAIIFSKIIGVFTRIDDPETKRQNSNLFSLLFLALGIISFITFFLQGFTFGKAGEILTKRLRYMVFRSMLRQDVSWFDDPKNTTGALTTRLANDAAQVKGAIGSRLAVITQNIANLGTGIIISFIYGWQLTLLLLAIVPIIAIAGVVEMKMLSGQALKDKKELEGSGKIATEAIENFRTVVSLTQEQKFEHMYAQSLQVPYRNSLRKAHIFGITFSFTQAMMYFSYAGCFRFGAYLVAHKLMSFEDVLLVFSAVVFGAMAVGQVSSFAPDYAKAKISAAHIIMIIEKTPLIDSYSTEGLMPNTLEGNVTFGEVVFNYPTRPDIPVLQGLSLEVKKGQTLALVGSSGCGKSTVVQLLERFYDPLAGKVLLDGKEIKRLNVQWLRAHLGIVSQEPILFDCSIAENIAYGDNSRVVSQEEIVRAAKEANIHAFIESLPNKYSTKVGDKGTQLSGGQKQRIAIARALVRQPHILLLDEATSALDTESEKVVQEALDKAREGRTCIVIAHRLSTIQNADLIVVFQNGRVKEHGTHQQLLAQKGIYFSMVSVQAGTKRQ

Turning to `COCC1=C=C(c2ccc(OC)cc2)c2cc(OC)c(OC)cc2CCN(C)/C=C\1C(=O)OC`, the pKi at Acetylcholinesterase [1] is 5.31.

For `COC(=O)/C1=C/N(C)CCc2cc(OC)c(OC)cc2C(C)=C=C1c1ccccc1`, the pIC50 is 4.85 against Acetylcholinesterase [2] and 5.15 in assay [3].

In the case of `COC(=O)/C1=C/N(C)CCc2cc(OC)c(OC)cc2C(c2ccc(OC)cc2)=C=C1c1ccccc1`, the values for the pIC50 (in the assay on HepG2; with MCF7; in assay [4]) were less than 4.00, less than 4.00 and 8.38, respectively.
